The values below come from patent US12384801B2, “Benzothiophene, thienopyridine and thienopyrimidine derivatives for the modulation of sting” (CTXT PTY LTD, priority 2019, dated 2025).

The target in test [1] is T1, human STING (HAQ) (Homo sapiens (Human), UniProt Q86WV6, G230A/H232R/R293Q). Briefly: biochemical.
Test [2] deals with human HAQ isoform of STING (Homo sapiens (Human), UniProt Q86WV6, G230A/H232R/R293Q/R71H). The test can be described thus: THP-1 STING Lucia ISG reporter cell line assay. Type of test: cell-based. Conditions: 24 h incubation, luminescence, normalized to ML RR-S2 CDA 40 μM; read-out: EC50 THP-I STING Lucia ISG cells. The method, boiled down: (§1)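 THP-1 reporter cells, 5×10^5 cells/mL, were exposed 24 h at 37 °C to 11-point, 2.5-fold compound dilutions; positive control was 40 μM final ML RR-S2 CDA. ISG-driven Lucia luciferase was read by QUANTI-Luc luminescence, normalized to positive and untreated controls, giving EC50. HAQ STING: THP-1 STING Lucia ISG; WT R232: THP-1-Dual KI-hSTING-R232.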
Chain of human HAQ isoform of STING (Q86WV6 whole entry R71H/G230A/H232R/R293Q, canonical isoform): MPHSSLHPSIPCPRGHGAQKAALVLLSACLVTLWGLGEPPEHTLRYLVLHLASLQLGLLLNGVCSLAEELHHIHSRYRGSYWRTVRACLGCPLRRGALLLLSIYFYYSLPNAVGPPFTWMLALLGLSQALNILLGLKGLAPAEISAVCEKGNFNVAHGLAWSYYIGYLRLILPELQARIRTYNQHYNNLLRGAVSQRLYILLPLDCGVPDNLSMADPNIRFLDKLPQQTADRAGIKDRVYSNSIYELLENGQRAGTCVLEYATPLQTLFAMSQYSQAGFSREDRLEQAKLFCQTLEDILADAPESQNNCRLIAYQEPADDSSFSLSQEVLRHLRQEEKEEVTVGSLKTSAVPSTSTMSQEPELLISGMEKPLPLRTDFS

In the next test the target is WT human STING isoform (Homo sapiens (Human), UniProt Q86WV6, H232R). The test can be described thus: THP-1-Dual KI-hSTING-R232 reporter cell line assay. In kind it is cell-based. Conditions: 24 h incubation, luminescence, normalized to ML RR-S2 CDA 40 μM; read-out: EC50 THP-1 Dual KI-hSTING-R232 cells. The method, boiled down:
as §1

The target in test [3] is T2, human STING (WT) (Homo sapiens (Human), UniProt Q86WV6, H232R). Briefly: Differential scanning fluorimetry (DSF), huSTING (WT). Conditions: compound 100 μM, 2 μM protein, Tm with ligand minus Tm of protein alone (1% DMSO). In kind it is binding. Here is the method:
(§2) Data were analyzed using “Meltdown analysis” protocol described by Rosa (2015).
On the technique in general: Differential scanning fluorimetry follows unfolding on heating by fluorescence.

For test [4], the target named is T2, human STING (WT). Briefly: biochemical.
For test [5], the target named is T1, human STING (HAQ). The test can be described thus: Differential scanning fluorimetry (DSF), huSTING (HAQ). In kind it is binding. Conditions: compound 100 μM, 2 μM protein, Tm with ligand minus Tm of protein alone (1% DMSO). Here is the method:
as §2

Structures are written as SMILES.

T1 sequence (Q86WV6 149-345 G230A/H232R/R293Q): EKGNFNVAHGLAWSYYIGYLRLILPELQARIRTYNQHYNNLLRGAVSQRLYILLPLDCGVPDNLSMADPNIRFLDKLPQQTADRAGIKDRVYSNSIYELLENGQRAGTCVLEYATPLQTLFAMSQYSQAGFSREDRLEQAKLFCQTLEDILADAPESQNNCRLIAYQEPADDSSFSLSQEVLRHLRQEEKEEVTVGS
T2 sequence (Q86WV6 149-345 H232R): as the sequence (Q86WV6 149-345 G230A/H232R/R293Q) above, with A82G, Q145R counted along it
Chain of WT human STING isoform (Q86WV6 whole entry H232R, canonical isoform): as the sequence (Q86WV6 whole entry R71H/G230A/H232R/R293Q, canonical isoform) above, with H71R, A230G, Q293R counted along it

As for `NC(=O)c1ccc2c(c1)nc(-c1c(C(=O)O)sc3cccc(Cl)c13)n2CCCn1c(-c2c(C(=O)O)sc3cccc(Cl)c23)nc2cc(C(N)=O)ccc21` (single isomer, unassigned) [Example 4.2, 3,3′-(Propane-1,3-diylbis(5-carbamoyl-1H-benzo[d]imidazole-1,2-diyl))bis(4-chlorobenzo[b]thiophene-2-carboxylic acid)], the Kd at human STING (HAQ) [1] is 16.6 µM; on human STING (WT) [4], 23 µM. Besides, the EC50 in test [2] is greater than 40 µM; on WT human STING isoform, 19 µM. The “DSF huSTING (WT) ΔTm” value at human STING (WT) [3] is −0.76 °C. Besides, on human STING (HAQ) [5], the ΔTm at 100 µM amounted to 4.56 °C.

As a reminder, the Kd is the free concentration of one partner at which half of the binding sites on the other are occupied at equilibrium, for simple one-to-one binding. Read a high Kd as a looser complex. One may read the EC50 as the concentration needed to bring the measured effect to its halfway point. In general, ΔTm refers to the shift of the melting midpoint relative to a reference.
